How the values were obtained:
[1] = test system: Pseudomonas aeruginosa (Immunotype 1); test: In vivo protection against Pseudomonas aeruginosa infection in cyclophosphamide-immunosuppressed CFl female mice (LD50 / protective index); settings: CY-treated mice, LD50 (CY + test compound) / LD50 (CY alone); for Protective Index (log): Table 3, Pseudomonas aeruginosa, dose and route not given; for P.I. (log): PA, sub cutaneous
Protocol: (§1) Groups of 15-20 CFl female mice (Charles River Breeding, Cambridge, MA) weighing 22-28 gm were injected intraperitoneally (i.p.) with cyclophosphamide (Cytoxan; CY) at 250 mg per kg body weight. One to two hours later they were typically injected again with the test material by the route specified. Four days later, the mice were divided into groups of five, each of which were injected i.p. with a different dilution of a suspension of Pseudomonas aeruginosa (Immunotype 1). The number of survivors was determined periodically and an estimate was made of the number of CFU of Pseudomonas organisms necessary to cause 50% lethality by the cumulative method of L. J. Reed and H. Muench (Am. J. Hygeine 27 (1938) 493-497). A protective index (P.I.) was defined as the LD50 for the mice receiving cyclophosphamide and the test compound divided by the LD50 for the mice receiving cyclophosphamide alone. All control mice were injected with aqueous vehicle in the same route and schedule as the test animals.
(§2) All compounds for dosing were suspended in a sterile medium referred to as "aqueous vehicle" which contains 0.9% sodium chloride, 0.5% carboxymethyl cellulose, 0.4% Tween 80, and 0.9% benzyl alcohol unless otherwise stated. Test materials were evaluated via subcutaneous (s.c.), i.p., intramuscular (i.m.), orally (p.o.). and intravenous (i.v.) routes of administration. The initial test dose was 40 mg per kg per mouse, with each active compound subsequently titrated below this level.
(§3) All bacteria were inoculated i.p. to induce infection in the in vivo experiments. Candida albicans, however, was administered i.v. Bacteria cultures were harvested in the log phase, washed with phosphate buffered saline (PBS, and resuspended in PBS containing 10% glycerol for freezing at -70° C. in 1 ml aliquots. The number of […] (cfu's) was determined before and after freezing. Frozen cultures were routinely thawed and diluted in sterile PBS just prior to inoculation. Viable cell counts were routinely done on thawed cultures the day of challenge to determine the number of cfu's. Candida albicans was stored in distilled water at room temperature. Viable cell counts were determined the day of testing.
(§4) The testing and results of 6-(5-cholesten-3β-yloxy)hexyl-1-thio-β-D-mannopyranoside (Example 2) against various orgaisms is shown in Table 2.

Candida albicans = test: In vivo protection against Candida albicans infection in cyclophosphamide-immunosuppressed mice (LD50 / protective index); settings: CA i.v., CY-treated mice, sub cutaneous, LD50 (CY + test compound) / LD50 (CY alone)
Protocol: as §1
as §2, with “The initial test dose was 40 mg per kg per mouse, with each active compound subsequently titrated below this level.” left out
as §3, with “testing. […]” for “testing.”

Staphylococcus aureus = test: In vivo protection against Staphylococcus aureus infection in cyclophosphamide-immunosuppressed mice (LD50 / protective index); settings: SA, CY-treated mice, sub cutaneous, LD50 (CY + test compound) / LD50 (CY alone)
Protocol: as §1, §2, §3, §4

SMILES | Protective Index (log) [1] | other results
CC(C)CCC[C@@H](C)[C@H]1CC[C@H]2[C@@H]3CC=C4C[C@@H](OCCCCCCS[C@H]5O[C@@H](C)[C@@H](O)[C@@H](O)[C@@H]5O)CC[C@]4(C)[C@H]3CC[C@]12C [Example 4, 6-(5-Cholesten-3β-yloxy)hexyl 1-thio-β-L-fucopyranoside] | 1.3 log | –
CC(C)CCC[C@@H](C)[C@H]1CC[C@H]2[C@@H]3CC=C4C[C@@H](OCCCCCCS[C@H]5O[C@H](CO)[C@@H](O)[C@H](O)[C@@H]5O)CC[C@]4(C)[C@H]3CC[C@]12C [Example 1, 6-(5-Cholesten-3β-yloxy)hexyl 1-thio-α-D-mannopyranoside] | 1.5 log | –
CC(=O)N[C@H](C)[C@H]1CC[C@H]2[C@@H]3CC=C4C[C@@H](OCCCCCCS[C@@H]5O[C@H](CO)[C@@H](O)[C@H](O)[C@@H]5O)CC[C@]4(C)[C@H]3CC[C@]12C [Example 12, 6-(20R-Acetamido-pregn-5-en-3β-yloxy)hexyl 1-thio-β-D-mannopyranoside] | 2.6 log | –
CC(C)CCC[C@@H](C)[C@H]1CC[C@H]2[C@@H]3CC=C4C[C@@H](OCCCCCCS[C@@H]5O[C@@H](C)[C@@H](O)[C@@H](O)[C@@H]5O)CC[C@]4(C)[C@H]3CC[C@]12C [Example 3, 6-(5-Cholesten-3β-yloxy)hexyl 1-thio-α-L-fucopyranoside] | 2.8 log | –
CC(=O)N[C@@H](C)[C@H]1CC[C@H]2[C@@H]3CC=C4C[C@@H](OCCCCCCS[C@@H]5O[C@H](CO)[C@@H](O)[C@H](O)[C@@H]5O)CC[C@]4(C)[C@H]3CC[C@]12C [Example 11, 6-(20S-Acetamido-pregn-5-en-3β-yloxy)hexyl 1-thio-β-D-mannopyranoside] | 3.0 log | –
CC(C)CCC[C@@H](C)[C@H]1CC[C@H]2[C@@H]3CC=C4C[C@@H](OCCCCCCS[C@@H]5O[C@H](CO)[C@@H](O)[C@H](O)[C@@H]5O)CC[C@]4(C)[C@H]3CC[C@]12C [Example 2, 6-(5-Cholesten-3β-yloxy)hexyl 1-thio-β-D-mannopyranoside] | 4.5 log | P.I. (log) (Candida albicans; 10 mg/kg): 0.67 log; P.I. (log) (Candida albicans; 20 mg/kg): 0.81 log; P.I. (log) (Candida albicans; 40 mg/kg): 1 log; P.I. (log) ([1]; 10 mg/kg): 2.75 log; P.I. (log) ([1]; 20 mg/kg): 3.75 log; P.I. (log) ([1]; 40 mg/kg): 4.33 log; P.I. (log) ([1]; 80 mg/kg): 4.66 log; P.I. (log) (Staphylococcus aureus; 5 mg/kg): 0.99 log; P.I. (log) (Staphylococcus aureus; 10 mg/kg): 1.47 log; P.I. (log) (Staphylococcus aureus; 20 mg/kg): 1.83 log; P.I. (log) (Staphylococcus aureus; 40 mg/kg): 2.66 log
C[C@]12CC[C@H]3[C@@H](CC=C4C[C@@H](OCCCCCCS[C@@H]5O[C@H](CO)[C@@H](O)[C@H](O)[C@@H]5O)CC[C@@]43C)[C@@H]1CC[C@@H]2C(N)=O [Example 9, 6-(17β-Carbamido-androst-5-en-3β-yloxy)hexyl 1-thio-β-D-mannopyranoside] | 2.5 log | –
COC(=O)[C@H]1CC[C@H]2[C@@H]3CC=C4C[C@@H](OCCCCCCS[C@@H]5O[C@H](CO)[C@@H](O)[C@H](O)[C@@H]5O)CC[C@]4(C)[C@H]3CC[C@]12C [Example 8, 6-(17β-Carbomethoxy-androst-5-en-3β-yloxy)hexyl 1-thio-β-D-mannopyranoside] | 2.5 log | –
CC(=O)[C@H]1CC[C@H]2[C@@H]3CC=C4C[C@@H](OCCCCCCS[C@@H]5O[C@H](CO)[C@@H](O)[C@H](O)[C@@H]5O)CC[C@]4(C)[C@H]3CC[C@]12C [Example 7, 6-(Pregn-5-en-20-one-3β-yloxy)hexyl 1-thio-βD-mannopyranoside] | 3.5 log | –
CC[C@H](C=C[C@@H](C)[C@H]1CC[C@H]2[C@@H]3CC=C4C[C@@H](OCCCCCCS[C@@H]5O[C@H](CO)[C@@H](O)[C@H](O)[C@@H]5O)CC[C@]4(C)[C@H]3CC[C@]12C)C(C)C [Example 6, 6-(Stigmasta-5,22-dien-3β-yloxy)hexyl 1-thio-β-D-mannopyranoside] | 2.0 log | –
CC(C)CCC[C@@H](C)[C@H]1CC[C@H]2[C@@H]3CC=C4C[C@@H](OCCOCCS[C@@H]5O[C@H](CO)[C@@H](O)[C@H](O)[C@@H]5O)CC[C@]4(C)[C@H]3CC[C@]12C [Example 5, 2-(2-(5-Cholesten-3β-yloxy)ethoxy)ethyl 1-thio-β-D-mannopyranoside] | 1.7 log | –
CC(O)[C@H]1CC[C@H]2[C@@H]3CC=C4C[C@@H](OCCCCCCS[C@@H]5O[C@H](CO)[C@@H](O)[C@H](O)[C@@H]5O)CC[C@]4(C)[C@H]3CC[C@]12C (stereo partly drawn) [Example 10, 6-(Pregn-5-en-20-ol-3β-yloxy)hexyl 1-thio-β-D-mannopyranoside] | 1.3 log | –

From patent US4652637A, “Steroidal glycolipids” (priority 1985, dated 1987)
